Experimental data published in patent publication US8912186B2, “Allosteric protein kinase modulators” (Universitaet des Saarlandes, priority 2008, dated 2014).

Key:
Assay type in all cases: biochemical
PDK1 = target: T1, PDK1 (Homo sapiens, UniProt O15530); assay: cell-free kinase activity assay (ATPgamma[32P], T308tide substrate); details: for percent of catalytic activity of the Kinase in the presence of compound as compared to the solvent control (DMSO): PDK1 / activity at 50 µM / activity at 200 µM: DMSO control set 100%; for max. activation of PDK1 (fold): maximum activation achievable, compared to the basal activity of PDK1; for activity at 50 µM / activity at 200 µM: read-out: percent of catalytic activity of the Kinase in the presence of compound as compared to the solvent control (DMSO): PDK1
T1 construct: GST
T1 sequence (O15530 1-556): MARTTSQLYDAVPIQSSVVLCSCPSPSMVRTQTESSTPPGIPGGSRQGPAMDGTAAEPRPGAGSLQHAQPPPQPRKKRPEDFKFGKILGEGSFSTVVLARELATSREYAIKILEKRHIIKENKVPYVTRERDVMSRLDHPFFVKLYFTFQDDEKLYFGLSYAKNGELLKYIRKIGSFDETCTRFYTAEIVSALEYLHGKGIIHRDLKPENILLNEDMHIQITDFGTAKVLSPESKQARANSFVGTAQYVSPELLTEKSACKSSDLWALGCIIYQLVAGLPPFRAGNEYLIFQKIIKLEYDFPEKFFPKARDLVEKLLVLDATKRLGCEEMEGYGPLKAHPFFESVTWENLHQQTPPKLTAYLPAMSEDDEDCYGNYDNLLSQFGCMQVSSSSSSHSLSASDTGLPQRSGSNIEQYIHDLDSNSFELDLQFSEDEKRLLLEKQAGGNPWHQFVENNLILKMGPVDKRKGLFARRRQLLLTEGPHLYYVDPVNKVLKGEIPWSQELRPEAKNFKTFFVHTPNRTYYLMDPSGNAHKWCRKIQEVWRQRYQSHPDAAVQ
Description: Principle of the cell-free kinase activity assay: In general, the activity of the compounds as protein kinase inhibitors or activators may be assayed in vitro (cell free assay is meant here), in vivo or in a cell line. In vitro assays include assays that determine inhibition or activation of either the phosphorylation activity or ATPase activity of the activated protein kinase. Alternate in vitro assays quantitate the ability of the inhibitor to bind to the protein kinase. Compound binding may be measured by radiolabelling the compound prior to binding, isolating the inhibitor or activator/protein kinase complex and determining the amount of radiolabel bound. Alternatively, inhibitor or activator binding may be determined by running a competition experiment where new compounds are incubated with the protein kinase bound to known radioligands. Newer methods comprise fluorescence polarisation assays and surface plasmon resonance dependent techniques. […] The activity and modulation of activity is measured using a standard ATPgamma[^32P] assay as described earlier. […] The concentration of T308tide is 1 mM and the amount of PDK1 used is 200 ng. Reactions are carried out at room temperature. Reaction is started by addition of ATP-Mg mix and stopped with phosphoric acid after 30 min. Stopped reactions were spotted on to phosphocellulose paper (P81, Whatman) and washed. After drying, the radioactivity associated to the band was quantified.

PKCζ = target: T2, PKCζ (Homo sapiens, UniProt Q05513); assay: cell-free kinase activity assay; details: DMSO control set 100%; for remaining activity at 50 µM / remaining activity at 200 µM: read-out: percent of catalytic activity of the Kinase in the presence of compound as compared to the solvent control (DMSO): PKCζ
T2 sequence (Q05513 1-592): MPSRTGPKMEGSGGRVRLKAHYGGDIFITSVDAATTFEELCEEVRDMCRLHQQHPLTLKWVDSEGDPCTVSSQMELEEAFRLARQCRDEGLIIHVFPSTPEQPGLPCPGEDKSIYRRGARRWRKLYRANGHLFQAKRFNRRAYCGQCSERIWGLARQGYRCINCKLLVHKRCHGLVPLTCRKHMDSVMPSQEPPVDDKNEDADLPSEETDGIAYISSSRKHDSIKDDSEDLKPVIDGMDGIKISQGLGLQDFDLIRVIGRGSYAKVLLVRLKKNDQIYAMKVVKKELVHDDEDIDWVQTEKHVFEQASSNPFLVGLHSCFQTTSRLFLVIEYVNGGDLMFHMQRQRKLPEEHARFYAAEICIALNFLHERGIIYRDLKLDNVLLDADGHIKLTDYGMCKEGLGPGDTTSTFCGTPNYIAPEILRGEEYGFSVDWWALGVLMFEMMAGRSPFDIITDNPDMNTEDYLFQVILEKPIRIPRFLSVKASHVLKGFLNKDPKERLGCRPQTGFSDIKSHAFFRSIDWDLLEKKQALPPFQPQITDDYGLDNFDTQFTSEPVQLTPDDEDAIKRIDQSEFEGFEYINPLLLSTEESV

SGK = target: T3, SGK (Homo sapiens, UniProt O00141); assay: cell-free kinase activity assay; details: DMSO control set 100%; for remaining activity at 200 µM: read-out: percent of catalytic activity of the Kinase in the presence of compound as compared to the solvent control (DMSO): SGK
T3 sequence (O00141 1-431): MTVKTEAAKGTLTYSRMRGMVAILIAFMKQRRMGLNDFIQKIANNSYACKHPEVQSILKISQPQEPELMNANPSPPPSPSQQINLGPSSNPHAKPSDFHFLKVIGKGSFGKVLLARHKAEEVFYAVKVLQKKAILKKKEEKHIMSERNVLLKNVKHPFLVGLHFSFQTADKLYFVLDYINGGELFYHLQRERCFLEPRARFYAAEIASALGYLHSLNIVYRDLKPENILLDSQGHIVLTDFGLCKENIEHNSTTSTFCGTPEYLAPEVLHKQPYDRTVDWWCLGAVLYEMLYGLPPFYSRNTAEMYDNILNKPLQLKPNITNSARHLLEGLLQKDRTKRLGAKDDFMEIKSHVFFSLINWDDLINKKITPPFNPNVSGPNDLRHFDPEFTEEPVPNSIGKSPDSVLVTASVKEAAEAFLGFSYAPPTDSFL

PRK2 = PRK2 (Homo sapiens, UniProt Q16513); assay: cell-free kinase activity assay; details: DMSO control set 100%
Sequence of PRK2 (Q16513 whole entry, species assumed): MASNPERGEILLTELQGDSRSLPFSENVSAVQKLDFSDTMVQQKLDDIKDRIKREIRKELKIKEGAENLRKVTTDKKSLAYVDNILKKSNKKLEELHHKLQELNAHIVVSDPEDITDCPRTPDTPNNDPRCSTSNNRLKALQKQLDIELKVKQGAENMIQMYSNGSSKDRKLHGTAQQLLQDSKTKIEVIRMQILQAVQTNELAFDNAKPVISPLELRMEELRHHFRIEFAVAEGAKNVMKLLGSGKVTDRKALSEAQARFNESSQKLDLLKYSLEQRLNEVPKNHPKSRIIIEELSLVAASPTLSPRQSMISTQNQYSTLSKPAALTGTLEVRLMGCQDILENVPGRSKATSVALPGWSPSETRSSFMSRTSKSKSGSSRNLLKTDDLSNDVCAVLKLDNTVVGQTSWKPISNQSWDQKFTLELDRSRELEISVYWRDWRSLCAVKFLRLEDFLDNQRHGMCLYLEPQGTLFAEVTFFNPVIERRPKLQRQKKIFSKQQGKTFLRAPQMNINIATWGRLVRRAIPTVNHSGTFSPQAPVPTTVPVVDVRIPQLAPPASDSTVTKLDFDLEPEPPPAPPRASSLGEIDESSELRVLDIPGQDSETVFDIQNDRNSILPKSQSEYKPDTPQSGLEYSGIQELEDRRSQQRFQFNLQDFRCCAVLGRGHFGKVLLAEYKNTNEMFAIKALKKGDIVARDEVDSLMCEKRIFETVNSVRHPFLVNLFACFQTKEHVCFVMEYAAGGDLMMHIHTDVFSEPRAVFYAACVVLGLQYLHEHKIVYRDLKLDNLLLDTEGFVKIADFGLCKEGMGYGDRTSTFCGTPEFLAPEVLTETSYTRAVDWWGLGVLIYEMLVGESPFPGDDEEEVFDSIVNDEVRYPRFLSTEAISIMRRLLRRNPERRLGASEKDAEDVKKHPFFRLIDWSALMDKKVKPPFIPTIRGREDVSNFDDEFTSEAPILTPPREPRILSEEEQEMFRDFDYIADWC

S6K = S6K (Homo sapiens, UniProt P23443); assay: cell-free kinase activity assay; details: DMSO control set 100%; for remaining activity at 200 µM: 200 μM compound
Sequence of S6K (P23443 whole entry): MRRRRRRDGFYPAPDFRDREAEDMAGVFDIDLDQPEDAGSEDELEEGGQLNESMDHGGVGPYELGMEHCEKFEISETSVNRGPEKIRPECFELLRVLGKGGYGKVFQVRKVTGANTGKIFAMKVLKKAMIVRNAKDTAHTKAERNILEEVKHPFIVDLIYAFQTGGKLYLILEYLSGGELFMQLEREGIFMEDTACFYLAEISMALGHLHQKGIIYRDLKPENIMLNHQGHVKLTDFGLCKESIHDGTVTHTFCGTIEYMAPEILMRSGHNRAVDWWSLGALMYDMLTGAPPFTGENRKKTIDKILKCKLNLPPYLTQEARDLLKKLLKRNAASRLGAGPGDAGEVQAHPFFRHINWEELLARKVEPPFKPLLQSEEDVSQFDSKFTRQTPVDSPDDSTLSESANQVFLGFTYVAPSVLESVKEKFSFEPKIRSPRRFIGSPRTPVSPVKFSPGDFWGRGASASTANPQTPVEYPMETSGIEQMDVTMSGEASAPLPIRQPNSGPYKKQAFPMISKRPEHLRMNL

PKBβ = PKBβ (Homo sapiens, UniProt P31751); assay: cell-free kinase activity assay; details: DMSO control set 100%
Sequence of PKBβ (P31751 whole entry, species assumed): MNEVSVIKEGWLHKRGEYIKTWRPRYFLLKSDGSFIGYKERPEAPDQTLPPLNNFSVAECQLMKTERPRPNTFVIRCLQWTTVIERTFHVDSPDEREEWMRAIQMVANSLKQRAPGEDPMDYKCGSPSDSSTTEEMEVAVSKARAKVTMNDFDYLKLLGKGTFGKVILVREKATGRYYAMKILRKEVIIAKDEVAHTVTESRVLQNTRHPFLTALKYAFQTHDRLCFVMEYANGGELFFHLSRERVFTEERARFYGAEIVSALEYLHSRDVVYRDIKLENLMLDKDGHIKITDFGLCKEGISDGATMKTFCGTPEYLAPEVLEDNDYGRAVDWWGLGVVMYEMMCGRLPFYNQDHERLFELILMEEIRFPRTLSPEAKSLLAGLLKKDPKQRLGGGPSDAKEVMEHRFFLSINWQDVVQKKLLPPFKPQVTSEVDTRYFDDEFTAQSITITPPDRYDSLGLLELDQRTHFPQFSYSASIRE

PKA = PKA (Homo sapiens, UniProt P17612); assay: cell-free kinase activity assay; details: DMSO control set 100%
[1] = concentration of the compound required to activate half maximally, n.e.: no effect
[2] = read-out: percent of catalytic activity of the Kinase in the presence of compound as compared to the solvent control (DMSO): S6K
[3] = 200 μM compound, read-out: percent of catalytic activity of the Kinase in the presence of compound as compared to the solvent control (DMSO): PKBβ

SMILES | max. activation of PDK1 (fold) (PDK1; n.e.: no effect) | remaining activity at 50 µM (PKCζ; 50 μM compound) [%] | remaining activity at 200 µM (PKCζ; 200 μM compound) [%] | percent of catalytic activity of the Kinase in the presence of compound as compared to the solvent control (DMSO): SGK (SGK; 50 μM compound) | remaining activity at 200 µM (SGK; 200 μM compound) [%] | percent of catalytic activity of the Kinase in the presence of compound as compared to the solvent control (DMSO): PRK2 (PRK2; 50 μM compound) | percent of catalytic activity of the Kinase in the presence of compound as compared to the solvent control (DMSO): PRK2 (PRK2; 200 μM compound) | remaining activity at 200 µM (S6K; [2]) [%] | remaining activity at 200 µM (PKBβ; [3]) [%] | percent of catalytic activity of the Kinase in the presence of compound as compared to the solvent control (DMSO): PKA (PKA; 50 μM compound) | percent of catalytic activity of the Kinase in the presence of compound as compared to the solvent control (DMSO): PKA (PKA; 200 μM compound) | activity at 50 µM (PDK1; 50 μM compound) [%] | activity at 200 µM (PDK1; 200 μM compound) [%] | percent of catalytic activity of the Kinase in the presence of compound as compared to the solvent control (DMSO): S6K (S6K; 50 μM compound) | percent of catalytic activity of the Kinase in the presence of compound as compared to the solvent control (DMSO): PKBβ (PKBβ; 50 μM compound) | percent of catalytic activity of the Kinase in the presence of compound as compared to the solvent control (DMSO): PKBβ (PKBβ; 200 μM compound) | percent of catalytic activity of the Kinase in the presence of compound as compared to the solvent control (DMSO): PKCζ (PKCζ; 50 μM compound) | also measured
O=C(O)CC(C(=O)N1CCc2ccccc2C1)c1ccc(Cl)cc1 (centres unmarked) [PS 152] | – | – | – | no effect | – | no effect | no effect | ~80 | – | no effect | no effect | 240 | 310 | no effect | no effect | no effect | no effect | percent of catalytic activity of the Kinase in the presence of compound as compared to the solvent control (DMSO): PKCζ (PKCζ; 200 μM compound): no effect; percent of catalytic activity of the Kinase in the presence of compound as compared to the solvent control (DMSO): SGK (SGK; 200 μM compound): no effect
O=C(O)/C=C(/CCc1ccc(C(F)(F)F)cc1)c1ccccc1 [PS-T5, (Z)-3-Phenyl-5-[4-(trifluoromethyl)phenyl]pent-2-enoic acid] | 4.7 fold | ~0 | ~0 | weak inhib. | ~20 | no effect | no effect | ~60 | ~80 | no effect | – | > 250 | > 250 | no effect | no effect | – | – | AC50 (PDK1; [1]): 13.8 µM; remaining activity at 200 µM (PKA; 200 μM compound, read-out: percent of catalytic activity of the Kinase in the presence of compound as compared to the solvent control (DMSO): PKA): ~60%

Now from value to compound, other results behind:

max. activation of PDK1 (fold) (PDK1; n.e.: no effect) | remaining activity at 50 µM (PKCζ; 50 μM compound) [%] | remaining activity at 200 µM (PKCζ; 200 μM compound) [%] | percent of catalytic activity of the Kinase in the presence of compound as compared to the solvent control (DMSO): SGK (SGK; 50 μM compound) | remaining activity at 200 µM (SGK; 200 μM compound) [%] | percent of catalytic activity of the Kinase in the presence of compound as compared to the solvent control (DMSO): PRK2 (PRK2; 50 μM compound) | percent of catalytic activity of the Kinase in the presence of compound as compared to the solvent control (DMSO): PRK2 (PRK2; 200 μM compound) | remaining activity at 200 µM (S6K; [2]) [%] | remaining activity at 200 µM (PKBβ; [3]) [%] | percent of catalytic activity of the Kinase in the presence of compound as compared to the solvent control (DMSO): PKA (PKA; 50 μM compound) | percent of catalytic activity of the Kinase in the presence of compound as compared to the solvent control (DMSO): PKA (PKA; 200 μM compound) | activity at 50 µM (PDK1; 50 μM compound) [%] | activity at 200 µM (PDK1; 200 μM compound) [%] | percent of catalytic activity of the Kinase in the presence of compound as compared to the solvent control (DMSO): S6K (S6K; 50 μM compound) | percent of catalytic activity of the Kinase in the presence of compound as compared to the solvent control (DMSO): PKBβ (PKBβ; 50 μM compound) | percent of catalytic activity of the Kinase in the presence of compound as compared to the solvent control (DMSO): PKBβ (PKBβ; 200 μM compound) | percent of catalytic activity of the Kinase in the presence of compound as compared to the solvent control (DMSO): PKCζ (PKCζ; 50 μM compound) | SMILES | also measured
n.e. | 10 to 20 | 0 | no effect | ~20 | no effect | no effect | 25 | 25 | no effect | no effect | – | – | – | – | – | – | O=C(O)/C=C(/c1ccccc1)c1cc2cc(Cl)ccc2s1 [PS 118, (Z)-3-(5-Chloro-2-benzothiophenyl)-3-phenylacrylic acid] | percent of catalytic activity of the Kinase in the presence of compound as compared to the solvent control (DMSO): PDK1 (PDK1; 50 μM compound): no effect; percent of catalytic activity of the Kinase in the presence of compound as compared to the solvent control (DMSO): PDK1 (PDK1; 200 μM compound): no effect; AC50 PDK1 (μM) (PDK1; [1]): n.e.; remaining activity at 50 µM (S6K; 50 μM compound, read-out: percent of catalytic activity of the Kinase in the presence of compound as compared to the solvent control (DMSO): S6K): 85%; remaining activity at 50 µM (PKBβ; 50 μM compound, read-out: percent of catalytic activity of the Kinase in the presence of compound as compared to the solvent control (DMSO): PKBβ): 90%
– | 80 | 30 to 40 | no effect | 70 to 80 | no effect | no effect | ~80 | – | no effect | no effect | 300 | 400 | no effect | no effect | no effect | – | O=C(O)CC(CC(=O)N1Cc2ccc(Cl)cc2C1)c1ccc(Cl)cc1 (centres unmarked) [PS 141] | –
– | – | 50 | no effect | ~60 | no effect | no effect | ~50 | – | no effect | no effect | ~250 | > 250 | no effect | no effect | no effect | no effect | O=C(O)CC(Cc1nc2cc(Cl)c(Cl)cc2[nH]1)c1ccccc1 (centres unmarked) [PS 163, 4-(5,6-Dichloro-2-benzimidazolyl)-3-phenylbutanoic acid] | –
